Reference: ChEMBL document CHEMBL5528050, “Discovery of a Novel Series of Homo sapiens Caseinolytic Protease P Agonists for Colorectal Adenocarcinoma Treatment via ATF3-Dependent Integrated Stress Response” (J Med Chem, 2024)
Activity calls are given as the source filed them. No cut-off for these calls is given here.

Assays:
[1] = target: ATP-dependent Clp protease proteolytic subunit (Escherichia coli (strain K12)) (UniProt P0A6G7); test: Agonist activity at Escherichia coli ClpP using Suc-LY-AMC as substrate at 10 to 100 uM measured every 5 mins for 1 hr by fluorescence based analysis; conditions: dose 10-100 µM
Sequence of ATP-dependent Clp protease proteolytic subunit (Escherichia coli (strain K12)) (P0A6G7 whole entry): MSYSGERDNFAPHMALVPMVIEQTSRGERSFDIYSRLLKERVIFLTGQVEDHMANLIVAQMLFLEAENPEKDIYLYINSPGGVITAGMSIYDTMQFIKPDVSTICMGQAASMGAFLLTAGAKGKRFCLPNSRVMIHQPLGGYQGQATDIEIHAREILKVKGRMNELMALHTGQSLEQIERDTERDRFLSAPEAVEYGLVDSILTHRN

Staphylococcus aureus = test: Antibacterial activity against Staphylococcus aureus ATCC33591 assessed as reduction in bacterial growth; assay type: functional
Escherichia coli = test: Antibacterial activity against Escherichia coli ATCC25922 assessed as reduction in bacterial growth; assay type: functional
[2] = Antiproliferative activity against human L02 cells assessed as inhibition of cell growth measured after 72 hrs by CCK-8 method; assay type: toxicity, cell-based
[3] = Antiproliferative activity against human HCoEpiC cells assessed as inhibition of cell growth measured after 72 hrs by CCK-8 method; assay type: toxicity, cell-based
HCT-116 [4] = test: Induction of ROS generation in human HCT-116 cells assessed as increase in intracellular ROS level measured after 48 hrs DCFH-DA staining based analysis; assay type: functional, cell-based
HCT-116 [5] = test: Inhibition of mitochondrial function in human HCT-116 cells assessed as reduction in ATP production; assay type: functional, cell-based
Cell membrane = test: Induction of mitochondrial membrane potential loss in human HCT-116 cells assessed as increase in green fluorescence at high dose measured after 48 hrs by JC-1 staining based microscopy analysis; assay type: cell membranes
HCT-116 [6] = test: Antiproliferative activity against human HCT-116 cells assessed reduction in clone formation measured after 48 hrs by crystal violet staining based analysis; assay type: functional, cell-based
HCT-116 [7] = test: Induction of apoptosis in human HCT-116 cells measured after 48 hrs by annexin V-FITC/7-AAD based flow cytometry analysis; assay type: functional, cell-based
HCT-116 [8] = test: Induction of apoptosis in human HCT-116 cells assessed as apoptotic rate at low dose measured after 48 hrs by annexin V-FITC/7-AAD based flow cytometry analysis relative to control; assay type: functional
HCT-116 [9] = test: Induction of apoptosis in human HCT-116 cells assessed as apoptotic rate at medium dose measured after 48 hrs by annexin V-FITC/7-AAD based flow cytometry analysis relative to control; assay type: functional
HCT-116 [10] = test: Induction of apoptosis in human HCT-116 cells assessed as cell death at 2 uM measured after 48 hrs by annexin V-FITC/7-AAD based flow cytometry analysis relative to control; assay type: functional
HCT-116 [11] = test: Induction of apoptosis in human HCT-116 cells assessed as downregulation of bcl-2 expression at 0.5 to 2 uM measured after 48 hrs by Western blot analysis; assay type: functional, cell-based; conditions: dose 0.5-2 µM
HCT-116 [12] = test: Induction of cell cycle arrest in human HCT-116 cells assessed as increase in number of cells at G2 phase at 0.5 uM measured after 48 hrs by PI staining based flow cytometry analysis; assay type: functional
HCT-116 [13] = test: Induction of cell cycle arrest in human HCT-116 cells assessed as increase in number of cells at G2 phase at high dose measured after 48 hrs by PI staining based flow cytometry analysis; assay type: functional
[14] = Acute toxicity in BALB/c mouse assessed as survival at 50 mg/kg, iv administered as single dose measured upto 14 days; assay type: organism-based; conditions: in vivo, 336 h, time < 14 day
[15] = Acute toxicity in BALB/c mouse assessed as effect on liver at 50 mg/kg, iv administered as single dose measured upto 14 days by H and E staining based analysis; assay type: organism-based; conditions: in vivo, 336 h, time < 14 day
[16] = Acute toxicity in BALB/c mouse assessed as effect on kidney at 50 mg/kg, iv administered as single dose measured upto 14 days by H and E staining based analysis; assay type: organism-based; conditions: in vivo, 336 h, time < 14 day
[17] = Acute toxicity in BALB/c mouse assessed as reduction in body weight at low dose iv measured upto 21 days relative to control; assay type: organism-based; design: scale not given: the % may be the effect or the level left; conditions: in vivo, 504 h, time < 21 day
HCT-116 [18] = test: Antitumor activity against human HCT-116 cells xenografted in BALB/c nude mouse model assessed as reduction in tumor volume at 1.25 mg/kg,iv administered twice weekly and measured upto 21 days relative to control; assay type: functional; design: scale not given: the % may be the effect or the level left; conditions: time <= 21 day
HCT-116 [19] = test: Antitumor activity against human HCT-116 cells xenografted in BALB/c nude mouse model assessed as decrease in Bcl-2 expression at upto 5 mg/kg, iv administered twice weekly by Western blot analysis; assay type: functional, organism-based
[20] = Toxicity in BALB/c nude mouse assessed as effect on liver at 1.25 to 5 mg/kg, iv administered twice weekly and measured after 21 days by H and E staining based analysis; assay type: organism-based; conditions: in vivo, 504 h, dose 1.25-5 mg/kg, time 21 day
[21] = AUC (0 to 12hrs) in Sprague-Dawley rat at 10 mg/kg, iv by LC-MS/MS analysis; assay type: ADME, organism-based; conditions: in vivo
[22] = Clearance in Sprague-Dawley rat at 10 mg/kg, iv by LC-MS/MS analysis; assay type: ADME, organism-based; conditions: in vivo
[23] = MRT (0 to 24 hrs) in Sprague-Dawley rat at 10 mg/kg, iv by LC-MS/MS analysis; assay type: ADME, organism-based; conditions: in vivo
[24] = Tmax in Sprague-Dawley rat at 10 mg/kg, po by LC-MS/MS analysis; assay type: ADME, organism-based; conditions: in vivo
[25] = AUC (0 to 12hrs) in Sprague-Dawley rat at 10 mg/kg, po by LC-MS/MS analysis; assay type: ADME, organism-based; conditions: in vivo
[26] = Half life in Sprague-Dawley rat at 10 mg/kg, po by LC-MS/MS analysis; assay type: ADME, organism-based; conditions: in vivo
[27] = MRT (0 to 12hrs) in Sprague-Dawley rat at 10 mg/kg, po by LC-MS/MS analysis; assay type: ADME, organism-based; conditions: in vivo
[28] = Metabolic stability in human liver microsomes assessed as half life at 1 uM measured upto 60 mins in presence of NADPH regenerating system by LC-MS/MS analysis; assay type: ADME, Microsome
[29] = Metabolic stability in rat liver microsomes assessed as half life at 1 uM measured upto 60 mins in presence of NADPH regenerating system by LC-MS/MS analysis; assay type: ADME, Microsome
[30] = Metabolic stability in human liver microsomes assessed as intrinsic clearance at 1 uM measured upto 60 mins in presence of NADPH regenerating system by LC-MS/MS analysis; assay type: ADME, Microsome; conditions: read-out: CLH
HCT-116 [31] = test: Upregulation of DDIT3 expression in human HCT-116 cells measured after 48 hrs by Western blot analysis; assay type: functional, cell-based
HCT-116 [32] = test: Upregulation of ID1 expression in human HCT-116 cells measured after 48 hrs by Western blot analysis; assay type: functional, cell-based
HCT-116 [33] = test: Upregulation of ASNS expression in human HCT-116 cells measured after 48 hrs by Western blot analysis; assay type: functional, cell-based
HCT-116 [34] = test: Upregulation of CHAC1 expression in human HCT-116 cells measured after 48 hrs by Western blot analysis; assay type: functional, cell-based
HCT-116 [35] = test: Effect on DDIT3 expression in ClpP knockdown human HCT-116 cells at 2 uM measured after 48 hrs by Western blot analysis; assay type: functional, cell-based
HCT-116 [36] = test: Effect on DDIT4 expression in ClpP knockdown human HCT-116 cells at 2 uM measured after 48 hrs by Western blot analysis; assay type: functional, cell-based
HCT-116 [37] = test: Effect on JUN expression in ClpP knockdown human HCT-116 cells at 2 uM measured after 48 hrs by Western blot analysis; assay type: functional, cell-based
SW480 = test: cells; conditions: Homo sapiens, SW480, 72 h
Description: Antiproliferative activity against human SW480 cells assessed as inhibition of cell growth measured after 72 hrs by CCK-8 method

With `N#Cc1cccc(CN2CCC=C(C(=O)NCc3ccc(C(F)(F)F)cc3)C2)c1` the Activity [1] was “inactive”, the MIC (Staphylococcus aureus) was greater than 128 µg/mL and the MIC (Escherichia coli) was greater than 128 µg/mL. For the same compound, the IC50 at 72 h [2] was 64.1 µM, the IC50 at 72 h [3] was 75.2 µM and the Activity (HCT-116 [4]) was “Active”. The inhibition (HCT-116 [5]) was “Active”, the Activity (Cell membrane) was “Active” and the Activity (HCT-116 [6]) was “Dose-Dependent Effect”. The Activity (HCT-116 [7]) was “Dose-Dependent Effect”, the Activity (HCT-116 [8]) was 22% and the Activity (HCT-116 [9]) was 46%. For the same compound, the Activity (HCT-116 [10]) was 60%, the Activity (HCT-116 [11]) was “Active” and the Activity (HCT-116 [12]) was 20%. The Activity (HCT-116 [13]) was roughly 40%, the Activity [14] was “Non-Toxic” and the Activity [15] was “Non-Toxic”. The Activity [16] was “Non-Toxic”, the Activity [17] was 10% and the Activity (HCT-116 [18]) was 55.1%. The Activity (HCT-116 [19]) was “Active”, the Activity [20] was “Non-Toxic” and the AUC [21] was 1433.6 ng·h/mL. The CL [22] was 2.172 mL/min/kg, the MRT last [23] was 3.1 h and the Tmax [24] was 5.4 h. The AUC(0-t) [25] was 777 ng·h/mL, the half-life [26] was 4.7 h and the MRT last [27] was 6.7 h. For the same compound, the half-life at 1 µM [28] was 6.1 min, the half-life at 1 µM [29] was 0.3 h and the CLint scaled at 1 µM [30] was 206 mL/min/kg. For the same compound, the Activity (HCT-116 [31]) was “Active”, the Activity (HCT-116 [32]) was “Active” and the Activity (HCT-116 [33]) was “Active”. For the same compound, the Activity (HCT-116 [34]) was “Active”, the Activity (HCT-116 [35]) was “inactive” and the Activity (HCT-116 [36]) was “inactive”. The Activity (HCT-116 [37]) was “inactive” and the IC50 (SW480) was 5.4 µM.
